Drawing on patent US8242118B2, “Arylsulfonamide derivatives for use as CCR3 antagonists in the treatment of inflammatory and immunological disorders” (Axikin Pharmaceuticals Inc., priority 2001, dated 2012), this text covers IC50 for 40 compounds.

This experiment concerns the target T1, Human CCR3 (Homo sapiens, UniProt P51677).
T1 construct: The cloned CCR3 cDNA was constructed with pcDNA3 vector and transfected into a IC562 cell line; expressed in transfected cells
T1 sequence (P51677 1-355): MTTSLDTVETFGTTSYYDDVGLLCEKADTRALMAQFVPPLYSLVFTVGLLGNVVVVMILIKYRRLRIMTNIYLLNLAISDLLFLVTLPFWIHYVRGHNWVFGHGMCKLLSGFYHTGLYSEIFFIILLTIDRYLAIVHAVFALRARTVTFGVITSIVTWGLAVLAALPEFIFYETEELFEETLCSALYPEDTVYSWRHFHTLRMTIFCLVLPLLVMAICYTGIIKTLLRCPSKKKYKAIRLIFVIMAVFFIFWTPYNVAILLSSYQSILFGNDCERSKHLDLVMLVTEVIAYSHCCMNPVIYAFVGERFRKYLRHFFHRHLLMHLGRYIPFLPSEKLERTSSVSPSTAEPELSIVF
The experiment is described as follows: Receptor binding assay (RBA), [125I]-eotaxin. Conditions: human CCR3-transformed K562 cells, 0.1 nM [125I]-eotaxin; compounds of about 40 to 90% purity; read-out: Activity grade RBA (IC50 class). On the procedure: [Determination of IC50 Values of Compounds in Receptor Binding Assay]
• Human CCR3-transformed K562 cells were used. The cloned CCR3 cDNA was constructed with pcDNA3 vector and transfected into a IC562 cell line. The human CCR3-transformed K562 cells were maintained in RPMI-1640 (Cat.#22400-089, Life Technologies) supplemented with 10% FCS (Cat.#A-1115-L, Hyclone), 55 μM 2-mercaptoethanol (Cat.#21985-023, Life Technologies), 1 mM sodium pyruvate (Cat.#11360-070, Life Technologies), 100 units/ml of penicillin G and 100 μg/ml of streptomycin (Cat.#15140-122, Life Technologies), and 0.4 mg/ml of Geneticin (Cat.#10131-035, Life Technologies)(hereinafter called “culture medium”). Before the receptor binding assay, cells were pretreated with 5 mM sodium butyrate (Cat.#193-01522, Wako)-containing the culture medium (2×10^5 cells/ml) for 20-24 hours to increase the expression of CCR3. (2) Receptor Binding Assay (RBA) • Butyrate-pretreated cells, suspended in binding buffer (25 mM HEPES pH 7.6, 1 mM CaCl2, 5 mM MgCl2, 0.5% BSA, 0.1% NaN3) at a cell density of 2×10^6 cells/ml, were added into 60 μl/well in the 96-well round bottom polypropylene plate (Cat.#3365, Costar). Compounds, diluted with the binding buffer (4-times higher concentration of the final concentration), were added into 30 μl/well in the polypropylene plate. [^125I]-labeled human eotaxin (Cat.#IM290, Amersham Pharmacia Biotech), diluted with the binding buffer at the concentration of 0.4 nM (final concentration; 0.1 nM), was added into 30 μl/well in the polypropylene plate. Total 120 μl/well of binding reaction mixture (60 μl/well of cell suspension, 30 μl/well of compound solution, and 30 μl/well of [^125I]-labeled eotaxin) were incubated in the polypropylene plate for 1 hour at room temperature after the incubation, 100 μl/well of the reaction mixture was transferred to a filtration plate (Cat.#MAFB-N0B, Millipore), and washed with the washing buffer (25 mM HEPES pH 7.6, 1 mM CaCl2, 5 mM MgCl2, 0.5% BSA, 0.1% NaN3, 0.5 M NaCl) twice. The 96-well filtration plate was pretreated with 100 μl/well of 0.5% polyethylenimine (Cat.#P-3143, Sigma) for 2-4 hours at room temperature and washed with the washing buffer twice before use. The non-specific binding was determined by parallel incubation in the presence of 500 nM of non-labeled eotaxin (Cat.#23209, Genzyme Techne). The radioactivities remained on the filter were measured by liquid scintillation counter (TopCount™, Packard) after an addition of 45 μl/well of scintillant (Microscint20, Cat.#6013621, Packard). The inhibition percent at each concentration of compound was calculated, and IC50 values were determined from the inhibition curve. [Determination of IC50 Values of Compounds in Calcium Mobilization Assay] (IC50 Ca2+) (1) Cell • Human CCR3-transformed K562 cells were used. The human CCR3-transformed K562 cells were maintained in RPMI-1640 supplemented with 10% FCS, 55 μM 2-mercaptoethanol (Cat.#21985-023, Life Technologies), 1 mM sodium pyruvate, 100 units/ml of penicillin G and 100 μg/ml of streptomycin and 0.4 mg/ml of Geneticin. Before the calcium mobilization assay, cells were pretreated with 5 mM sodium butyrate-containing the culture medium (2×10^5 cells/ml) for 20-24 hours to increase the expression of CCR3. (2) Calcium Mobilization Assay • Butyrate-pretreated cells were loaded with Fluo-3AM (Cat.#F-1242, Molecular Probes) in loading buffer (Hanks' solution Cat.#05906 Nissui, 20 mM HEPES pH 7.6, 0.1% BSA, 1 mM probenecid Cat.#P-8761 Sigma, 1 μM Fluo-3AM, 0.01% pluronic F-127 Cat.#P-6866 Molecular Probes) at a cell density of 1×10^7 cells/ml. Then, cells were washed with calcium assay buffer (Hanks' solution Cat.#05906 Nissui, 20 mM HEPES pH 7.6, 0.1% BSA, 1 mM Probenecid Cat.#P-8761 Sigma). The cell suspension (3.3×10^6 cells/ml) was added into 60 μl/well in the 96-well clear bottom black plate (Cat.#3904, Costar). […]

Structures can show the parent of a compound that is named as a salt. A value given as a limit tells only on which side of the number the result lay.

Take `Cc1cc(C)cc(Oc2ccc(Cl)cc2S(=O)(=O)N2CCNCC2)c1` [Example 5-2, 1-{[5-chloro-2-(3,5-dimethylphenoxy)phenyl]sulfonyl}piperazine hydrochloride]: the IC50 is less than 1000 nM.
As for `Cc1cc(C)cc(Oc2ccc([N+](=O)[O-])cc2S(=O)(=O)N2CC(C)NC(C)C2)c1` (stereo not shown) [Example 1-92], the figure is less than 1000 nM; as for `CC(C)(C)c1ccc(Oc2ccc([N+](=O)[O-])cc2S(=O)(=O)N2CCNCC2)cc1` [Example 1-21], more than 10000 nM; as for `Cc1cc(C)cc(Oc2ccc(O)cc2S(=O)(=O)N2CCNCC2)c1` [Example 6-1, 4-(3,5-dimethylphenoxy)-3-(1-piperazinylsulfonyl)phenol hydrochloride], more than 10000 nM.
In the case of `Cc1cc(Oc2ccc([N+](=O)[O-])cc2S(=O)(=O)N2CCNCC2)ccc1Cl.Cl` [Example 1-60] it was 1000 to 10000 nM; in that of `COc1ccc(Oc2cc(C)cc(C)c2)c(S(=O)(=O)N2CCNCC2)c1` [Example 6-2, hydrochloride], less than 1000 nM; in that of `O=[N+]([O-])c1ccc(Oc2cc(Cl)ccc2Cl)c(S(=O)(=O)N2CCNCC2)c1` [Example 1-84], less than 1000 nM.
As for `Cl.O=[N+]([O-])c1ccc(Oc2cccc(Br)c2)c(S(=O)(=O)N2CCNCC2)c1` [Example 1-39], the figure is less than 1000 nM.
`Cc1cc(C)c(C)c(Oc2ccc([N+](=O)[O-])cc2S(=O)(=O)N2CCNCC2)c1.Cl` [Example 1-65]: the IC50 was less than 1000 nM.
For the compound `Cc1ccc(Oc2ccc([N+](=O)[O-])cc2S(=O)(=O)N2CCNCC2)cc1C.Cl` [Example 1-63], the IC50 was 1000 to 10000 nM.
In the case of `Cl.N[C@H]1CCN(S(=O)(=O)c2cc([N+](=O)[O-])ccc2Oc2cc(Cl)cc(Cl)c2)C1` [Example 1-100] it was less than 1000 nM; in that of `COc1ccc(Oc2ccc([N+](=O)[O-])cc2S(=O)(=O)N2CCNCC2)cc1` [Example 1-19], more than 10000 nM; in that of `O=[N+]([O-])c1ccc(Oc2ccccc2)c(S(=O)(=O)N2CCNCC2)c1` [Example 1-18], 1000 to 10000 nM.
As for `O=[N+]([O-])c1ccc(Oc2cccc(F)c2)c(S(=O)(=O)N2CCNCC2)c1` [Example 1-25], the figure is less than 1000 nM; as for `Cl.O=[N+]([O-])c1ccc(Oc2cc(Cl)cc(Cl)c2F)c(S(=O)(=O)N2CCNCC2)c1` [Example 1-77], less than 1000 nM; as for `Cl.O=[N+]([O-])c1ccc(Oc2c(F)c(F)cc(F)c2F)c(S(=O)(=O)N2CCNCC2)c1` [Example 1-74], less than 1000 nM.
Turning to `O=[N+]([O-])c1ccc(Oc2ccc(F)cc2)c(S(=O)(=O)N2CCNCC2)c1` [Example 1-20], the IC50 was more than 10000 nM.
In the case of `Cc1cc(C)cc(Oc2ccc(Br)cc2S(=O)(=O)N2CCNCC2)c1` [Example 8-1, 1-{[5-bromo-2-(3,5-dimethylphenoxy)phenyl]sulfonyl}piperazine hydrochloride], the IC50 was less than 1000 nM.
Take `CC(=O)c1ccccc1Oc1ccc([N+](=O)[O-])cc1S(=O)(=O)N1CCNCC1.Cl` [Example 1-30]: the IC50 is more than 10000 nM.
As for `Cc1cc(Oc2ccc([N+](=O)[O-])cc2S(=O)(=O)N2CCNCC2)c(C(C)C)cc1Cl` [Example 1-81], the figure is more than 10000 nM; as for `Cc1cc(Oc2ccc([N+](=O)[O-])cc2S(=O)(=O)N2CCNCC2)cc(C(C)C)c1.Cl` [Example 1-8], less than 1000 nM.
In the case of `CC(C)c1cccc(Oc2ccc([N+](=O)[O-])cc2S(=O)(=O)N2CCNCC2)c1.Cl` [Example 1-9] it was less than 1000 nM.
Take `COc1cc(C)cc(Oc2ccc([N+](=O)[O-])cc2S(=O)(=O)N2CCNCC2)c1.Cl` [Example 1-37]: the IC50 is less than 1000 nM.
As for `Cc1cc(C)cc(Oc2ccc(C#N)cc2S(=O)(=O)N2CCNCC2)c1` [Example 9-1, 4-(3,5-dimethylphenoxy)-3-(1-piperazinylsulfonyl)benzonitrile hydrochloride], the figure is less than 1000 nM; as for `Cc1cc(C)cc(Oc2ccc([N+](=O)[O-])cc2S(=O)(=O)N2CCN(CCOCCO)CC2)c1` [Example 1-89], less than 1000 nM.
As for `Cl.O=S(=O)(c1cc(F)ccc1Oc1cc(Cl)cc(Cl)c1)N1CCNCC1` [Example 1-51], the figure is less than 1000 nM; as for `COc1cc(OC)cc(Oc2ccc([N+](=O)[O-])cc2S(=O)(=O)N2CCNCC2)c1.Cl` [Example 1-5], more than 10000 nM; as for `Cl.N#Cc1cccc(Oc2ccc([N+](=O)[O-])cc2S(=O)(=O)N2CCNCC2)c1` [Example 1-10], 1000 to 10000 nM.
In the case of `CN(C)c1cccc(Oc2ccc([N+](=O)[O-])cc2S(=O)(=O)N2CCNCC2)c1.Cl` [Example 1-32] it was more than 10000 nM.
As to `Cc1ccccc1Oc1ccc([N+](=O)[O-])cc1S(=O)(=O)N1CCNCC1.Cl` [Example 1-12], the IC50 lay within 1000 to 10000 nM.
As for `O=[N+]([O-])c1ccc(Oc2cc(Br)cc(Br)c2)c(S(=O)(=O)N2CCNCC2)c1` [Example 1-76], the figure is less than 1000 nM; as for `Cl.O=[N+]([O-])c1ccc(Oc2cc(Cl)cc(Cl)c2Cl)c(S(=O)(=O)N2CCNCC2)c1` [Example 1-86], less than 1000 nM; as for `O=[N+]([O-])c1ccc(Oc2cc(Cl)cc(Cl)c2)c(S(=O)(=O)N2CC3CCCNC3C2)c1` (stereo not shown) [Example 1-48], less than 1000 nM.
In the case of `Cl.O=[N+]([O-])c1ccc(Oc2ccccc2Cl)c(S(=O)(=O)N2CCNCC2)c1` [Example 1-28] it was 1000 to 10000 nM.
As for `Cc1cc(C)cc(Oc2cc(C)c([N+](=O)[O-])cc2S(=O)(=O)N2CCNCC2)c1.Cl` [Example 1-44], the figure is 1000 to 10000 nM; as for `Cc1cc(C)cc(Sc2ccc([N+](=O)[O-])cc2S(=O)(=O)N2CCNCC2)c1` [Example 2-1, 1-({2-[(3,5-dimethylphenyl)-sulfanyl]-5-nitrophenyl}sulfonyl)piperazine hydrochloride], less than 1000 nM.
On to `Cc1cc(C)cc(Oc2ccc([N+](=O)[O-])cc2S(=O)(=O)N2CCNCC2)c1` [Example 1-2, 1-{[2-(3,5-dimethylphenoxy)-5-nitrophenyl]sulfonyl}piperazine hydrochloride], for which the half-maximal inhibitory concentration (IC50) is less than 1000 nM.
In the case of `CC(C)(C)c1cc(Oc2ccc([N+](=O)[O-])cc2S(=O)(=O)N2CCNCC2)cc(C(C)(C)C)c1.Cl` [Example 1-7] it was more than 10000 nM.
In the case of `Cc1cc(Oc2cc(Cl)cc(Cl)c2)c(S(=O)(=O)N2CCNCC2)cc1[N+](=O)[O-].Cl` [Example 1-45] it was less than 1000 nM; in that of `O=[N+]([O-])c1ccc(Oc2ccc(Cl)cc2)c(S(=O)(=O)N2CCNCC2)c1` [Example 1-22], more than 10000 nM.
